Test results taken from ChEMBL document CHEMBL1201862, “PubChem BioAssay data set” (2004).
Each block holds one compound with its values, some of them ahead of it. The source made the active and inactive calls.

Tests used:
[1] = biological target: T1, Calpain-2 catalytic subunit (Sus scrofa, UniProt P43367); test: m-calpain protease blockers, concentration series – biochemical, fluorogenic peptide substrate, dose response (AID 1420); format: functional
T1 sequence (P43367 whole entry): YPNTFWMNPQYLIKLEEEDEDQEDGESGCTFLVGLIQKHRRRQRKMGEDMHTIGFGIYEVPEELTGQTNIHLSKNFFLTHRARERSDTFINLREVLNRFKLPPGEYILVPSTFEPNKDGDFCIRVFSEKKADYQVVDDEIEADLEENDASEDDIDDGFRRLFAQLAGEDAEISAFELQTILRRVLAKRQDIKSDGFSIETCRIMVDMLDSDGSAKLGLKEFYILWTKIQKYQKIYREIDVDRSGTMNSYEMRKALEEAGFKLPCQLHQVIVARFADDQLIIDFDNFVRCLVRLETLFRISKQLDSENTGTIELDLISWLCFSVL

[2] = non-specific 3'UTR reporter inhibition in Clone20-Shn3RL – cell-based, Renilla luciferase, cherry-picked, counter-screen for Shn3 inhibitor project, dose response (AID 624133); format: functional
[3] = loss of viability in HepG2 cells – cell-based, CellTiter-Glo, cherry-picked, cytotoxicity control for Shn3 inhibitor project, dose response (AID 624134); format: functional
[4] = reduction of Shn3 3'UTR-driven luciferase in osteoblasts – cell-based, Clone20 osteoblasts, firefly luciferase, cherry-picked, dose response (AID 624132); format: functional;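 also: firefly luciferase luminescence from reporter carrying the Shn3 3'UTR in osteoblasts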
Leucine aminopeptidase = biological target: T2, Leucine aminopeptidase (Plasmodium falciparum 3D7, UniProt Q8IL11); test: P. falciparum M17LAP inhibitors, primary screen, biochemical, fluorogenic H-Leu-NHMec substrate, 1536-well (AID 1619); format: functional
T2 sequence (Q8IL11 whole entry): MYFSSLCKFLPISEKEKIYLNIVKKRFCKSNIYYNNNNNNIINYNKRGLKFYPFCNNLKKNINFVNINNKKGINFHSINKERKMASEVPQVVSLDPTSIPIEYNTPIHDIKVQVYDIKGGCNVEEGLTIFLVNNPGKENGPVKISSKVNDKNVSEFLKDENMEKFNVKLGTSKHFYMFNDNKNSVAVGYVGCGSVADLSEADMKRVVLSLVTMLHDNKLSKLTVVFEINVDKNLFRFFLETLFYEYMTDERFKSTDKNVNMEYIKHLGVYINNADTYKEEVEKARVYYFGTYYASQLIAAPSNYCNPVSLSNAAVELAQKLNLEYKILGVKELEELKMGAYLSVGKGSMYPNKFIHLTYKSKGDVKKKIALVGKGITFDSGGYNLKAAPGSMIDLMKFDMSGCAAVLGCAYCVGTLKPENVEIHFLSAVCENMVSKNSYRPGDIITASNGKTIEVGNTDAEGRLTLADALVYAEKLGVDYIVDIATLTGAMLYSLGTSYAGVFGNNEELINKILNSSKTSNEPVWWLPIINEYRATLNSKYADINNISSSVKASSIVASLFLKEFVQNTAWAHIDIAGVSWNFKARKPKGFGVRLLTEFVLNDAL

INS1 = test: INS-1E survival protection against cytokine death – cell-based, luminescence, retest, dose response (AID 449756); format: functional; settings: Rattus norvegicus;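 also: cell death triggered by IL-1 beta plus TNF-alpha plus IFN-gamma mixture; protective hits raise ATP signal compared with cytokine alone wells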
H9c2 = test: cells; format: functional, cell-based; settings: Rattus norvegicus, H9c2, Myocardium;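 also: confirmatory concentration-response retest of ultra-high-throughput screening hits for modulation of myocardial damage; cell death induced by hydrogen peroxide oxidative stress; compound pretreatment for 60 min then peroxide exposure for 2 h; potency is for protecting the cells against peroxide damage rather than for killing them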
[5] = biological target: T3, Polyadenylate-binding protein 1 (Homo sapiens, UniProt P11940); test: MLLE domain peptide-binding blockers, IC50 – biochemical, fluorescence polarization, FITC-PAM2 peptide, dose response (AID 602259); format: functional; settings: read-out: IC50_Mean
[6] = biological target: T3, Polyadenylate-binding protein 1; test: MLLE binding blockers, Cy5 peptide tracer – biochemical, fluorescence polarization, Cy5-PAM2 peptide, secondary, miRNA deadenylation inhibitor project, dose response (AID 602260); format: functional; settings: read-out: IC50_Mean
[7] = biological target: Eukaryotic translation initiation factor 4E (Mus musculus, UniProt P63073); test: blockers of eIF4G binding by eIF4E – biochemical, TR-FRET, dose response (AID 855); format: functional;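 also: potency for disrupting eIF4E binding to eIF4GI seen as loss of FRET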
[8] = biological target: Induced myeloid leukemia cell differentiation protein Mcl-1 (Homo sapiens, UniProt Q07820); format: functional
Cytochrome P450 3A4 = Cytochrome P450 3A4 (Homo sapiens, UniProt P08684);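 also: CYP3A4 tested as one member of a cytochrome P450 panel screen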
Cytochrome P450 2C19 = Cytochrome P450 2C19 (Homo sapiens, UniProt P33261); test: Cytochrome panel assay with activity outcomes. Panel member name: p450-cyp2c19 Compounds with AC50 equal or less than 10 uM are considered active; format: functional; settings: read-out: AC50
[9] = biological target: Glyceraldehyde-3-phosphate dehydrogenase (Homo sapiens, UniProt P04406)
[10] = blockers of HIV-1 ZM109 envelope-driven cell-cell fusion – HeLa effector, CEM target cells, luciferase, cherry-pick, dose response (AID 652058); format: functional, cell-based;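 also: luciferase signal from HIV-1 Env mediated cell-cell fusion of effector and target cells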
[11] = HIV-1 AD8 envelope cell-cell fusion blockers – cherry-pick, dose response (AID 652062); format: functional, cell-based;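 also: luciferase signal from cell-cell fusion driven by HIV-1 clade B AD8 Env; potency is for inhibitors of fusion seen as a drop in luminescence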
[12] = blockers of HIV-1 envelope-mediated cell-cell fusion – cherry-pick, dose response (AID 652057); format: functional, cell-based
[13] = off-target signal loss in HeLa-CEM21 co-culture – HeLa F-luc CTL cells, cherry-picked, counter-screen for HIV-1 Env fusion inhibitor project, dose response (AID 652040); format: functional, cell-based;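 also: potency for signal decrease marking cytotoxic or nonspecific inhibition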

T3 sequence (P11940 whole entry, the tested form may be a part): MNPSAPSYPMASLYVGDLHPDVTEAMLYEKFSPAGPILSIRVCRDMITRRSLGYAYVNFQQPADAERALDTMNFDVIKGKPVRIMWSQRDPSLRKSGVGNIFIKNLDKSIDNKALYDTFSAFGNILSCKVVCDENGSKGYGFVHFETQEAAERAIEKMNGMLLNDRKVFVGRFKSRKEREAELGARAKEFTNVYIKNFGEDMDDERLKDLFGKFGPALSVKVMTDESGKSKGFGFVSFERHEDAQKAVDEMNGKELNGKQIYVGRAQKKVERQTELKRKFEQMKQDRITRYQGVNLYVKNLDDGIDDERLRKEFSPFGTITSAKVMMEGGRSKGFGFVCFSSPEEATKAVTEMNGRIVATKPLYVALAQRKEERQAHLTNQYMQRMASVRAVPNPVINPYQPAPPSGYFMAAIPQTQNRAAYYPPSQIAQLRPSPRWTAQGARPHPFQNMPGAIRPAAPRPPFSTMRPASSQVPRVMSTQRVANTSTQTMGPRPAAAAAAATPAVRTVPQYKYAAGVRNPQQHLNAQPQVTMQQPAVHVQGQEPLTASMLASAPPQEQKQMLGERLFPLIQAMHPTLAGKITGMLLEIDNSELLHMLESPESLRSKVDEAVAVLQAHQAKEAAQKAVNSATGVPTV
Glyceraldehyde-3-phosphate dehydrogenase, sequence (P04406 whole entry, the tested form may be a part): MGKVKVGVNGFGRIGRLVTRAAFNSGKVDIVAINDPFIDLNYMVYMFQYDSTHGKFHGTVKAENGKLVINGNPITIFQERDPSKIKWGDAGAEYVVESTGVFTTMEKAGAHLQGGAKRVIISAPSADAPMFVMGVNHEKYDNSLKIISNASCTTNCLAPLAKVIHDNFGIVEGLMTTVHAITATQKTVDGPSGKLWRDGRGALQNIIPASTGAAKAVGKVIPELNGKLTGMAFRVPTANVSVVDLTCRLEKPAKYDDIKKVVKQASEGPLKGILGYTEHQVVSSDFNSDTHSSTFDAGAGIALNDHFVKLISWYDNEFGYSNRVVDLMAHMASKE
Eukaryotic translation initiation factor 4E, sequence (P63073 whole entry): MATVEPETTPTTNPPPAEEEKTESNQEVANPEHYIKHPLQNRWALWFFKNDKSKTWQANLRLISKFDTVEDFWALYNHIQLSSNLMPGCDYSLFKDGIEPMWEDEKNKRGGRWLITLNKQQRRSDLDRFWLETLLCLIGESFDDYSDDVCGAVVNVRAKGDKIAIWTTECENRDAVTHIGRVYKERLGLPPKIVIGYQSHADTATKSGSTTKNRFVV
Induced myeloid leukemia cell differentiation protein Mcl-1, sequence (Q07820 whole entry): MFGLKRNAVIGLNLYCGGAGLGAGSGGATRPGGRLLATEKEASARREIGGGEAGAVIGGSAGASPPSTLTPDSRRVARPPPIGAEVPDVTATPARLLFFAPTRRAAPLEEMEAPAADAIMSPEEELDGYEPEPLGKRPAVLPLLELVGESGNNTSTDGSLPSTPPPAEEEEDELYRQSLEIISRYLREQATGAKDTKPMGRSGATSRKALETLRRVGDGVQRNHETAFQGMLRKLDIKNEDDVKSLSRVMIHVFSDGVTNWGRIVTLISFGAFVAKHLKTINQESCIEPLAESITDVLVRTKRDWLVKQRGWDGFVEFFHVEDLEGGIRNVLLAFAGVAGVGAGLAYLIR
Cytochrome P450 3A4, sequence (P08684 whole entry): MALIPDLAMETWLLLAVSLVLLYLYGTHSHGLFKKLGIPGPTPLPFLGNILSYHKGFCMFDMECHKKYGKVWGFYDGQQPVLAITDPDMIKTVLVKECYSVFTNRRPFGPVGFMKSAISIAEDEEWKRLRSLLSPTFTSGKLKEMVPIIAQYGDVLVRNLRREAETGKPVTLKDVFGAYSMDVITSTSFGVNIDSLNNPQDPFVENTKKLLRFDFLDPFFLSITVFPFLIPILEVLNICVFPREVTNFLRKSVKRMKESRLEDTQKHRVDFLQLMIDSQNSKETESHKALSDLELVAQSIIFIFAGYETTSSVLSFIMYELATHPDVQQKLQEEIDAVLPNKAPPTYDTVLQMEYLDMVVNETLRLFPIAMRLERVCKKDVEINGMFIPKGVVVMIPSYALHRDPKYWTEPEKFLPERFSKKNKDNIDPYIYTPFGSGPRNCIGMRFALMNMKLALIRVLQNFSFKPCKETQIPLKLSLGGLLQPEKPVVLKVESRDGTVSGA
Cytochrome P450 2C19, sequence (P33261 whole entry): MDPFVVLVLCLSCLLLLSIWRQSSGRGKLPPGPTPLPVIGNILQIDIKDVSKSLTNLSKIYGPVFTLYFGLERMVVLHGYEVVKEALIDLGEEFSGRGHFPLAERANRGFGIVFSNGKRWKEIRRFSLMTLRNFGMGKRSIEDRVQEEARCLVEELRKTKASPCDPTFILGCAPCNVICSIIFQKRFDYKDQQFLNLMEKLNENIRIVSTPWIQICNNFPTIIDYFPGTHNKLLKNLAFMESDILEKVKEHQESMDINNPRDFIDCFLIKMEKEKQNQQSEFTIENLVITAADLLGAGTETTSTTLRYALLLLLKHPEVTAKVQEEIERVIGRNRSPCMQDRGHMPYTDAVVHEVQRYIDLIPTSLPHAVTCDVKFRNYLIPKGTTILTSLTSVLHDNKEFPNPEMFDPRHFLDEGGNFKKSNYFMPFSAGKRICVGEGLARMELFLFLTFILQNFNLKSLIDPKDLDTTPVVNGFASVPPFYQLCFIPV

IC50 [1]: 3.42 µM (not active)
SMILES: COc1ccccc1NC(=O)C12CC3CC(C1)CC(c1ccc(C)cc1)(C3)C2

IC50 (Leucine aminopeptidase): 8.96 µM (active)
SMILES: COc1ccc(CC(CC(=O)O)C(=O)Nc2ccc(OC)cc2)cc1 (stereo not given)

IC50 [5]: > 66 µM (inactive) | IC50 [6]: > 66 µM (inactive)
SMILES: Cc1cccc(NC(=O)NC(=S)NC(=O)c2ccccc2)c1

IC50 [7]: 50 µM (inactive) | IC50 [8]: 3.24 µM (not active) | IC50 (Leucine aminopeptidase): 3.05 µM (active)
SMILES: O=C(O)CCN1C(=O)/C(=C/c2cn(-c3ccccc3)nc2-c2cccs2)SC1=S

IC50 [1]: > 50 µM (not active)
SMILES: COc1cc2c(cc1[N+](=O)[O-])n(C(C)C)c(=O)n2C(C)C

IC50 [5]: > 66 µM (inactive) | IC50 [6]: > 66 µM (inactive)
SMILES: COc1ccc(NC(=O)CSc2nnc(CCC(=O)O)c(=O)n2N)cc1

IC50 [1]: 5.76 µM (not active)
SMILES: CC1(C(=O)NCc2ccc(Cl)c(Cl)c2)Oc2ccccc2NC1=O (stereo not given)

IC50 [5]: > 66 µM (inactive) | IC50 [6]: > 66 µM (inactive)
SMILES: O=C(NC(=S)NC1CCSC1=O)c1ccc([N+](=O)[O-])cc1 (stereo not given)

IC50 [9]: > 100 µM (not active)
SMILES: O=C(O)CSc1cccc2c(SCC(=O)O)cccc12

IC50 [5]: > 66 µM (inactive) | IC50 [6]: > 66 µM (inactive)
SMILES: Oc1nc(S)nc2c1CN(Cc1ccc(F)cc1)CC2

IC50 (Leucine aminopeptidase): 22.8 µM (active)
SMILES: Cc1cc(C(=O)CSc2nc[nH]n2)c(C)n1-c1cccc(S(=O)(=O)N2CCOCC2)c1

IC50 [1]: > 50 µM (not active)
SMILES: CCOc1ncccc1C(=O)Nc1nnc(C)s1

IC50 (Leucine aminopeptidase): 11.8 µM (active)
SMILES: O=C(O)C1CC=CCC1C(=O)NCCc1cccc(Cl)c1 (stereo not given)

IC50 (Leucine aminopeptidase): 8.08 µM (active)
SMILES: CC(C)c1c(O)nc(SCC(=O)Nc2ccc3c(c2)CCC3)[nH]c1=O

IC50 [5]: > 66 µM (inactive) | IC50 [6]: > 66 µM (inactive)
SMILES: CCC(C)NC(=O)[C@H]1N2C(=O)c3c(ccc(OC)c3OC)C2SC1(C)C (stereo not given in full)

IC50 [9]: > 100 µM (not active)
SMILES: O=C(CSc1ccccn1)Nc1ccc(O)c(C(=O)O)c1

IC50 [9]: > 50 µM (inconclusive)
SMILES: O=C1C(Cl)=C(N2CCN(C/C=C/c3ccccc3)CC2)C(=O)N1c1ccc(Cl)nc1

IC50 [1]: 6.72 µM (active)
SMILES: Cn1nc(C(F)(F)F)c2cc(NC(=O)OCc3ccc(F)cc3)sc21

IC50 [5]: > 66 µM (inactive) | IC50 [6]: > 66 µM (inactive)
SMILES: CC(=O)c1cccc(S(=O)(=O)NC2CCSc3ccccc32)c1 (stereo not given)

IC50 [5]: > 66 µM (inactive) | IC50 [6]: > 66 µM (inactive)
SMILES: CCN(CC(=O)Nc1ccc(OC)cc1)C(=O)CSCc1c(C)noc1C

IC50 [5]: > 66 µM (inactive) | IC50 [6]: > 66 µM (inactive)
SMILES: O=c1[nH]nc(Sc2ccccc2)c(=S)[nH]1

IC50 (Leucine aminopeptidase): 36.6 µM (active)
SMILES: CC1=NNC(=O)C1CCC(=O)N/N=C(\C)c1ccccc1 (stereo not given)

The next lines start with the compound.

SMILES: CC(C)C[C@H]1CN=C(N(C)C)N1CC1CCCCCC1
AC50 [2]: 9.97 µM (active) | AC50 [3]: > 70 µM (inactive) | AC50 [4]: 5.03 µM (active)

SMILES: CCCCCCSc1ccc([C@H]2N[C@@](Cc3ccccc3)(C(=O)OC)[C@H]3C(=O)N(C)C(=O)[C@@H]23)cc1
AC50 (INS1): 14.1 µM (active) | IC50 (H9c2): > 79 µM (inactive)

SMILES: COc1ccc(N(C(=O)c2cccnc2)S(=O)(=O)c2cccs2)cc1
IC50 (H9c2): > 79 µM (inactive)

SMILES: O=C(Nc1cccc(C(F)(F)F)c1)c1cccn(Cc2ccc3c(c2)OC(F)(F)O3)c1=O
IC50 [1]: > 50 µM (not active) | AC50 (Cytochrome P450 3A4): 25.1 µM (inconclusive) | AC50 (Cytochrome P450 2C19): 2.24 µM (inconclusive)

SMILES: CCCN1C=CC(=C/C=C(\C#N)C(=O)OCC)C=C1
IC50 (Leucine aminopeptidase): 91.5 µM (active)

SMILES: O=C(c1cc([N+](=O)[O-])ccc1N1CCOCC1)N1CCCCC1
IC50 [1]: > 50 µM (not active)

SMILES: Cc1cc(C)n2nc(SCC(=O)c3cc(C)n(-c4cc(C)on4)c3C)nc2n1
AC50 [2]: 3.28 µM (active) | AC50 [3]: > 70 µM (inactive) | AC50 [4]: 2.46 µM (active)

SMILES: CCOC(=O)c1c(NC(=O)C2C3C=CC(CC3)C2C(=O)O)sc(C)c1CC (stereo not given)
IC50 (Leucine aminopeptidase): 13.2 µM (active)

SMILES: CC1(C)CC2CC(C)(CN2S(=O)(=O)c2cccc(C(=O)OCC(=O)NC(N)=O)c2)C1 (stereo not given)
AC50 [10]: 6.73 µM (active) | AC50 [11]: 13.8 µM (active) | AC50 [12]: 6.32 µM (active) | AC50 [13]: 6.33 µM (active)

SMILES: Cc1nc2sccn2c1-c1csc(NCc2ccccc2)n1
AC50 [10]: 10.1 µM (active) | AC50 [11]: 10.7 µM (active) | AC50 [12]: 15.4 µM (active) | AC50 [13]: 24 µM (active)

SMILES: O=C(NCc1cccnc1)c1cnc2cc3c(cc2c1O)OCCO3
AC50 [11]: 1.22 µM (active) | AC50 [13]: < 0.26 µM (active)

SMILES: COc1cccc(N2CC(C(=O)NCc3nnc(O)c4ccccc34)CC2=O)c1 (stereo not given)
IC50 (H9c2): > 79 µM (inactive)

SMILES: CCC1(c2ccccc2)NC(=O)N(CC(=O)Nc2cc(S(=O)(=O)N3CCCCC3)ccc2OC(C)C)C1=O (stereo not given)
AC50 [10]: 3.02 µM (active) | AC50 [11]: 14.7 µM (active) | AC50 [12]: 1.8 µM (active) | AC50 [13]: 5.57 µM (active)

SMILES: Cc1cc(Cl)ccc1OCCCC(=O)Nc1cc(S(=O)(=O)N2CCOCC2)ccc1N1CCOCC1
AC50 [10]: 5.3 µM (active) | AC50 [11]: 7.34 µM (active) | AC50 [12]: 2.05 µM (active) | AC50 [13]: 4.73 µM (active)

SMILES: CC(C)(C)N1C(=O)[C@H]2[C@@H](c3ccc(Br)cc3)N3C(=O)N(c4ccccc4)C(=O)[C@@]3(C)[C@H]2C1=O
AC50 [10]: 1.08 µM (active) | AC50 [11]: 1.83 µM (active) | AC50 [12]: 1.13 µM (active) | AC50 [13]: 1.18 µM (active)
